{
  "source": "patent US20230190887A1",
  "about": "“TARGETING G3BP AGGREGATION TO PREVENT NEURODEGENERATION” (priority 2019, published 2023)",
  "key": {"E18 cortical neurons": {"test_system": "E18 cortical neurons", "test": "Axon growth of cortical neurons in microfluidic devices", "format": "cell-based, rat", "conditions": "10 μM peptide applied to axonal compartment at 3 DIV, assessed at 6 DIV", "protocol": "For cortical neuron cultures, E18 cortices were dissected in Hibernate E (BrainBits) and dissociated using the Neural Tissue Dissociation kit (Miltenyi Biotec). For this, minced cortices were incubated in a pre-warmed enzyme mix at 37° C. for 15 min; tissues were then triturated and applied to a 40 μm cell strainer.\nAfter washing and centrifugation, neurons were seeded at a density of 1×10^5 cells per poly-D-lysine-coated microfluidic device (Xona Microfluidics). NbActive-1 medium (BrainBits) supplemented with 100 U/ml of Penicillin-Streptomycin (Life Technologies), 2 mM L-glutamine (Life Technologies), and 1×N21 supplement (R&D Systems) was used as culture medium.\nFor peptide treatments, 10 μM Tat-fused peptides were added to dissociated DRG cultures at 2 or 12 h after plating. Neurite outgrowth was assessed 24 h after addition of peptides. For the cortical cultures, 10 μM peptide was applied to the axonal compartment at 3 d in vitro (DIV) and axonal growth was assessed at 6 DIV. For iMotor neurons, 20 μM peptides were immediately added and neurite growth was assessed 24 h later."}, "[1]": {"test_system": "G3BP1 aggregates in cortical neurons", "test": "Endogenous G3BP1 aggregates in Aβ-treated cortical neurons", "format": "cell-based, rat", "conditions": "Aβ oligomers plus peptide", "excerpt": "Given that the G3BP1 190-208 peptide prevents degeneration induced by treatment with neurotoxins such as MPP+ and Aβ oligomer and decreases G3BP1 aggregates formed due MPP+ and Aβ treatment.\n(A) Size of endogenous G3BP1 aggregates per 100 μm of neurite is shown as indicated bins from midbrain cultures under control conditions and after treatment with MPP+alone or with 190-208 G3BP1 or 168-189 peptides. (B) Size distribution of endogenous G3BP1 aggregates per 100 μm of neurite is shown from cortical neurons treated with 1 μM Aβpeptide or with […] 190-208 G3BP1 or 168-189 control peptide. Non-treated neurons were used as a control. […] (N≥90 over 3 cultures; by two-way ANOVA with Tukey HSD post-hoc)."}, "C9ORF72 iPS-MN axons": {"test_system": "C9ORF72 iPS-MN axons", "test": "OPP labeling of local protein synthesis in iPS-MN axons", "format": "cell-based, human", "conditions": "axonal-exclusive application of 20 μM peptide", "excerpt": "Formation of G3BP1-positive RNP condensates is strongly associated with repressed RNA translation, see Sahoo, P. K. et al. A Ca^2+ dependent switch activates axonal casein kinase 2α translation and drives G3BP1 granule disassembly for axon regeneration. Curr. Biol. 30, 4882-4895.e6 (2020), and altered mRNA transport, see Liao, Y. C. et al. RNA granules hitchhike on lysosomes for long-distance transport, using Annexin All as a molecular tether. Cell 179, 147-164.e20 (2019), leading to reduced protein synthesis, see Sahoo, P. K. et al. Axonal G3BP1 stress granule protein limits axonal mRNA translation and nerve regeneration. Nat. Commun. 9, 1-14 (2018). […] By quantifying OPP puncta density within in vitro NMJs, we identified robust protein synthesis within control co-cultures, while protein synthesis in TDPΔNLS NMJs was severely impaired (FIG. 19 3k-l). […] Unpaired-t-test, two-sided ****p<0.0001. c Images and d-f quantification of NFH, pTDP-43 and G3BP1 and their colocalization in C9ORF72 iPS-MN axons either treated or not with G3BP1 peptide. Quantifications of G3BP1 particle density (d), G3BP1-pTDP-43 coloc-particle density (e) and G3BP1-pTDP-43 coloc-particle size (f) from C9ORF72 and control iPS-MN axons, either treated or not with G3BP1 peptide. […] One-way-ANOVA with Holm-Sidak correction. […], ****p<0.0001. i Images and j quantification of OPP puncta density in control or ΔNLS MN axons. […]"}},
  "data": [
    {"substance": "YGNKKNNNQNNN-VVEPEPEPEPEPEPEPVSE [G3BP1 190-208 peptide]", "values": [
      {"measurement": "penetration into cell bodies and axons", "setting": "primary MNs", "value": "penetration"},
      {"measurement": "axon growth", "setting": "E18 cortical neurons", "value": "significant increase in axon growth"},
      {"measurement": "size of endogenous G3BP1 aggregates per 100 μm of neurite", "setting": "[1]", "value": "decrease in the size of G3BP1 aggregates"},
      {"measurement": "size of endogenous G3BP1 aggregates per 100 μm of neurite", "setting": "[1]; listed as 190-208 G3BP1 peptide", "value": "disassembly of G3BP1 granules"},
      {"measurement": "OPP puncta density (axonal translation)", "setting": "C9ORF72 iPS-MN axons", "value": "reversed"}
    ]}
  ]
}
